Patent publication US12569452B2, “Ophthalmic compositions comprising F6H8” (NOVALIQ GMBH, priority 2017, dated 2026)

Experiment: Ocular tissue distribution after multiple topical ocular doses of 14C-F6H8, liquid scintillation counting
Assay type: in vivo, female Dutch Belted rabbits
Details: for Mean concentration of radioactivity, Conjunctiva (bulbar) / Mean concentration of radioactivity, Conjunctiva (palpebral) / Mean concentration of radioactivity, Cornea / Mean concentration of radioactivity, Lacrimal gland (accessory) / Mean concentration of radioactivity, Lacrimal gland (main) / Mean concentration of radioactivity, Meibomian glands / Mean concentration of radioactivity, Sclera (anterior) / Mean concentration of radioactivity, Tears: multiple dose (nine doses)
Protocol: Animals are not fasted prior to dose administration. All animals receive single 35 μL-drops of the dose formulation in each eye, with the right eye dosed first. All collection times are based on the time of dosing of the second (left) eye for the last dose, as applicable.
After the dose is administered, the eye is allowed to close naturally. Each animal is then restrained for approximately 1 minute to prevent rubbing of the eyes.
Tears and Ocular Tissue Collection: Tears are collected from two animals per group per time point at 0.25, 0.5, 1, 2, 4, 8, and 24 hours post-dose following the single dose or the last dose of the multiple dose scheme. Tears are collected using Tear Flo Test (TFT) strips that were dye free. One strip of paper is used for each eye for each time point. Following collection, the tube containing the strip is placed on dry ice or stored at approximately −70° C. until analysed.
At the time of sacrifice, both eyes are enucleated and ocular tissues including Aqueous humour, Conjunctiva (bulbar), Conjunctiva (palpebral), Lacrimal gland (accessory), Lacrimal gland (main), Meibomian glands (tarsal plate), Choroid-Retinal pigmented epithelium (Choroid-RPE), Cornea, Iris-ciliary body (ICB), Retina, Sclera (anterior), Sclera (posterior), Vitreous humour are collected.
Radioanalysis: All samples are analyzed for radioactivity in a Model 2900TR liquid scintillation counter (Packard Instrument Company) for at least 5 minutes or 100,000 counts, utilizing Ultima Gold XR or Hionic Fluor scintillation cocktails (Perkin Elmer). Each sample is homogenized before radioanalysis, unless the entire sample is used for analysis. All samples are analyzed in duplicate if sample size allows.
For Conjunctiva (bulbar and palpebral), Cornea, Lacrimal gland (main), Meibomian glands, Retina, and Sclera (anterior and posterior), each sample is digested in 2M sodium hydroxide in ethanol (80:20, v:v) and maintained at room temperature or in an oven set no higher than 30° C. until dissolved. Scintillation cocktail is added, and the samples are shaken and analyzed directly by LSC.
For Lacrimal gland (accessory), each sample is digested in 2M sodium hydroxide in ethanol (80:20, v:v) and maintained at room temperature or in an oven set no higher than 30° C. until dissolved. The sample is homogenized by mixing and duplicate weighed aliquots are analyzed directly by LSC.
For Tears, at least 10 mL of Ultima Gold XR scintillation cocktail is added, and the samples are shaken and analyzed by LSC.
Multiple topical ocular administration: The rabbits receive twice daily doses (approximately 12 hours apart±20 minutes) of 35 μl ^14C—F6H8 administered to both eyes for four consecutive days, and on the fifth day receive a single dose in the morning to both eyes (a total of nine doses). The administered dose level at each dosing occasion is approximately 47 mg/eye, equivalent to […]. Following the last dose on Study Day 5, two animals per time point are sacrificed at 0.25, 0.5, 1, 2, 4, 8, and 24 hours post-dose in a sparse sampling profile. Ocular tissues (including tears collected prior to sacrifice) are collected from all animals at sacrifice.

[1] = multiple dose, between 0.25 and 4 hours post-dose

^14C-1-Perfluorohexyloctane [^14C-F6H8]
Mean concentration of radioactivity, Conjunctiva (bulbar) (0.25 h after last dose): 8290 ng Equivalents ^14C-F6H8/g
Mean concentration of radioactivity, Conjunctiva (palpebral) (0.25 h after last dose): 14000 ng Equivalents ^14C-F6H8/g
Mean concentration of radioactivity, Cornea (0.25 h after last dose): 20600 ng Equivalents ^14C-F6H8/g
Mean concentration of radioactivity, Lacrimal gland (accessory) (0.25 h after last dose): 7120 ng Equivalents ^14C-F6H8/g
Mean concentration of radioactivity, Lacrimal gland (main) (0.25 h after last dose): 7090 ng Equivalents ^14C-F6H8/g
Mean concentration of radioactivity, Meibomian glands (0.25 h after last dose): 222000 ng Equivalents ^14C-F6H8/g
Mean concentration of radioactivity, Sclera (anterior) (0.25 h after last dose): 3550 ng Equivalents ^14C-F6H8/g
Mean concentration of radioactivity, Tears (0.25 h after last dose): 2330000 ng Equivalents ^14C-F6H8/g
Mean concentration of radioactivity, Conjunctiva (bulbar) (0.5 h after last dose): 5280 ng Equivalents ^14C-F6H8/g
Mean concentration of radioactivity, Conjunctiva (palpebral) (0.5 h after last dose): 11900 ng Equivalents ^14C-F6H8/g
Mean concentration of radioactivity, Cornea (0.5 h after last dose): 21000 ng Equivalents ^14C-F6H8/g
Mean concentration of radioactivity, Lacrimal gland (accessory) (0.5 h after last dose): 8190 ng Equivalents ^14C-F6H8/g
Mean concentration of radioactivity, Lacrimal gland (main) (0.5 h after last dose): 8140 ng Equivalents ^14C-F6H8/g
Mean concentration of radioactivity, Meibomian glands (0.5 h after last dose): 145000 ng Equivalents ^14C-F6H8/g
Mean concentration of radioactivity, Sclera (anterior) (0.5 h after last dose): 2650 ng Equivalents ^14C-F6H8/g
Mean concentration of radioactivity, Tears (0.5 h after last dose): 872000 ng Equivalents ^14C-F6H8/g
Mean concentration of radioactivity, Conjunctiva (bulbar) (1 h after last dose): 4440 ng Equivalents ^14C-F6H8/g
Mean concentration of radioactivity, Conjunctiva (palpebral) (1 h after last dose): 11300 ng Equivalents ^14C-F6H8/g
Mean concentration of radioactivity, Cornea (1 h after last dose): 27600 ng Equivalents ^14C-F6H8/g
Mean concentration of radioactivity, Lacrimal gland (accessory) (1 h after last dose): 4770 ng Equivalents ^14C-F6H8/g
Mean concentration of radioactivity, Lacrimal gland (main) (1 h after last dose): 4610 ng Equivalents ^14C-F6H8/g
Mean concentration of radioactivity, Meibomian glands (1 h after last dose): 92900 ng Equivalents ^14C-F6H8/g
Mean concentration of radioactivity, Sclera (anterior) (1 h after last dose): 3920 ng Equivalents ^14C-F6H8/g
Mean concentration of radioactivity, Tears (1 h after last dose): 742000 ng Equivalents ^14C-F6H8/g
Mean concentration of radioactivity, Conjunctiva (bulbar) (2 h after last dose): 3970 ng Equivalents ^14C-F6H8/g
Mean concentration of radioactivity, Conjunctiva (palpebral) (2 h after last dose): 7510 ng Equivalents ^14C-F6H8/g
Mean concentration of radioactivity, Cornea (2 h after last dose): 15900 ng Equivalents ^14C-F6H8/g
Mean concentration of radioactivity, Lacrimal gland (accessory) (2 h after last dose): 5140 ng Equivalents ^14C-F6H8/g
Mean concentration of radioactivity, Lacrimal gland (main) (2 h after last dose): 5040 ng Equivalents ^14C-F6H8/g
Mean concentration of radioactivity, Meibomian glands (2 h after last dose): 100000 ng Equivalents ^14C-F6H8/g
Mean concentration of radioactivity, Sclera (anterior) (2 h after last dose): 2080 ng Equivalents ^14C-F6H8/g
Mean concentration of radioactivity, Tears (2 h after last dose): 832000 ng Equivalents ^14C-F6H8/g
Mean concentration of radioactivity, Conjunctiva (bulbar) (4 h after last dose): 3840 ng Equivalents ^14C-F6H8/g
Mean concentration of radioactivity, Conjunctiva (palpebral) (4 h after last dose): 6920 ng Equivalents ^14C-F6H8/g
Mean concentration of radioactivity, Cornea (4 h after last dose): 17500 ng Equivalents ^14C-F6H8/g
Mean concentration of radioactivity, Lacrimal gland (accessory) (4 h after last dose): 9280 ng Equivalents ^14C-F6H8/g
Mean concentration of radioactivity, Lacrimal gland (main) (4 h after last dose): 8890 ng Equivalents ^14C-F6H8/g
Mean concentration of radioactivity, Meibomian glands (4 h after last dose): 70300 ng Equivalents ^14C-F6H8/g
Mean concentration of radioactivity, Sclera (anterior) (4 h after last dose): 3470 ng Equivalents ^14C-F6H8/g
Mean concentration of radioactivity, Tears (4 h after last dose): 103000 ng Equivalents ^14C-F6H8/g
Mean concentration of radioactivity, Conjunctiva (bulbar) (8 h after last dose): 2970 ng Equivalents ^14C-F6H8/g
Mean concentration of radioactivity, Conjunctiva (palpebral) (8 h after last dose): 5160 ng Equivalents ^14C-F6H8/g
Mean concentration of radioactivity, Cornea (8 h after last dose): 22000 ng Equivalents ^14C-F6H8/g
Mean concentration of radioactivity, Lacrimal gland (accessory) (8 h after last dose): 5100 ng Equivalents ^14C-F6H8/g
Mean concentration of radioactivity, Lacrimal gland (main) (8 h after last dose): 4650 ng Equivalents ^14C-F6H8/g
Mean concentration of radioactivity, Meibomian glands (8 h after last dose): 52900 ng Equivalents ^14C-F6H8/g
Mean concentration of radioactivity, Sclera (anterior) (8 h after last dose): 2650 ng Equivalents ^14C-F6H8/g
Mean concentration of radioactivity, Tears (8 h after last dose): 32200 ng Equivalents ^14C-F6H8/g
Mean concentration of radioactivity, Conjunctiva (bulbar) (24 h after last dose): 2750 ng Equivalents ^14C-F6H8/g
Mean concentration of radioactivity, Conjunctiva (palpebral) (24 h after last dose): 4410 ng Equivalents ^14C-F6H8/g
Mean concentration of radioactivity, Cornea (24 h after last dose): 16200 ng Equivalents ^14C-F6H8/g
Mean concentration of radioactivity, Lacrimal gland (accessory) (24 h after last dose): 3480 ng Equivalents ^14C-F6H8/g
Mean concentration of radioactivity, Lacrimal gland (main) (24 h after last dose): 3630 ng Equivalents ^14C-F6H8/g
Mean concentration of radioactivity, Meibomian glands (24 h after last dose): 45500 ng Equivalents ^14C-F6H8/g
Mean concentration of radioactivity, Sclera (anterior) (24 h after last dose): 2410 ng Equivalents ^14C-F6H8/g
Mean concentration of radioactivity, Tears (24 h after last dose): 46800 ng Equivalents ^14C-F6H8/g
Highest mean concentration, Meibomian glands [1]: 222000 ng equivalents ^14C—F6H8/g
Highest mean concentration, accessory lacrimal gland [1]: 9280 ng equivalents ^14C—F6H8/g
Highest mean concentration, bulbar conjunctiva [1]: 8290 ng equivalents ^14C—F6H8/g
Highest mean concentration, cornea [1]: 27600 ng equivalents ^14C—F6H8/g
Highest mean concentration, main lacrimal gland [1]: 8890 ng equivalents ^14C—F6H8/g
Highest mean concentration, palpebral conjunctiva [1]: 14000 ng equivalents ^14C—F6H8/g
Highest mean concentration, tears [1]: 2330000 ng equivalents ^14C—F6H8/g
Ocular tissue concentrations, multiple compared to single topical ocular administration (multiple vs single dose scheme): higher concentrations
